Test results as given in PMC9721025, “Pharmacokinetic study of the main components of Tanreqing capsules and Tanreqing injections in beagles by liquid chromatography–tandem mass spectrometry” (Chinese Medicine, 2022).
Read-outs that look alike come from different tables or passages of the source.

How the values were obtained:
[1] = Stability of analytes in dog plasma (QC samples); format: in vitro ADME
Method: The stock solutions of all analytes were further mixed and diluted with methanol/water (10:90, v/v) solution to prepare the working solutions. […] The QC samples were stored in a refrigerator at – 80 °C until retrieval (see Additional file 1). The stability, which includes short-term stability (6 h at room temperature), long-term stability (− 80 °C for 30 days in the refrigerator), and freeze–thaw stability (three cycles from − 80 °C to room temperature), were assessed using QC samples at three concentration levels in three replicates. […] Similarly, there were no obvious effects on the analysis results of the samples with respect to short-term stability or long-term storage.

[2] = Pharmacokinetics in beagles, single-dose regimen of TRQI (i.v.) or TRQC (oral), plasma LC-MS/MS; format: in vivo, beagle; conditions: for AUC(0-t) / Cmax / Tmax / half-life: beagle, dog, plasma; for AUC(0-t): read-out: AUC0–24 h; for Cmax / Tmax / half-life: mean of six beagles
Method: (§1) 100 μL plasma sample was drawn and transferred to 1.5 mL centrifuge tube prior to 300 μL protein precipitant (3:1 [v/v] methanol/acetonitrile, containing 0.1% formic acid and 100 ng/mL IS) was added, and then the sample was vortex-mixed for 3 min. The mixture was centrifuged at 20,000 ×g for 10 min, and 100 μL supernatant was transferred to the injection vial and analyzed directly by LC–MS/MS.
(§2) This study was carried out in six beagles (three males and three females, 9.0–12.0 kg each), that were purchased from Junda Pet Hospital (Shanghai, China). This experimental protocol was approved by the Experimental Animal Ethics Committee of the Naval Military Medical University (Shanghai, China).
The six healthy beagles were divided into two groups: beagles 1–3 were all male and were assigned to the first group, and beagles 4–6 were all females and assigned to the second group. The two-cycle, crossover study was designed with a 7-day wash out period. For the single-administration process, the dogs in the first group were injected intravenously with 0.5 mL/kg TRQI (one-third of the normal daily dose), and blood samples were collected at 0, 5, 10, 15, 20, 30, and 45 min and then at 1, 2, 4, 6, 8, 12, and 24 h (a total of 14 time points) after injection. For each blood sample, 1 mL of blood was collected from the forelimb vein in heparin-treated tubes. The dogs in the second group were orally administrated 0.09 g/kg TRQC (one-third of the normal daily dose, and blood samples were collected in the same manner at 0, 10, 20, and 40 min and then at 1, 1.5, 2, 2.5, 3, 4, 6, 8, 12, and 24 h (a total of 14 time points). All blood samples were centrifuged at 4000 × g for 5 min, and each supernatant was collected and aliquoted. After a 7-day wash out period, the dogs in each group were administrated the other Tanreqing formulation in a crossover design, and blood samples were collected and processed in the same way.
(§3) All data obtained were analyzed using Drug and Statistics (DAS) 2.0 software (Chinese Society of Pharmacology), and a non-compartment analysis was used to calculate plasma pharmacokinetic parameters. The principal components of TRQI and TRQC were compared with an analysis of variance (ANOVA) and/or a two-tailed student-t test.

[3] = cited from earlier work; for t1/2: Tanreqing injection
[4] = Pharmacokinetics in beagles, multiple-dose regimen (once per day for 7 days) of TRQI or TRQC, plasma LC-MS/MS; format: in vivo; conditions: beagle, dog; for Cmax at 7 days / Tmax at 7 days / half-life at 7 days: mean
Method: as §1, §2
After the end of the single-dose experiment, the dogs in group one were given 0.5 mL/kg injection of TRQI once per day for 7 days following the wash out period, and the dogs in group two were given 0.09 g/kg TRQC once per day for 7 days. After the seventh administration, blood samples were collected at 0, 10, 20, and 40 min and then at 1, 1.5, 2, 2.5, 3, 4, 6, 8, 12, and 24 h (a total of 14 time points) and were processed as described in “Single-dose regimen” section. The resulting plasma samples were used to determine the steady-state plasma concentration of TRQI and TRQC. A crossover study was again carried out in both groups, as described in “Single-dose regimen” section, after a 7-day washing period.
as §3

[5] = n = 3, high QC: nominal 200 ng/mL baicalin, 1000 ursodeoxycholic acid, 100 chenodeoxycholic acid and chlorogenic acid
[6] = n = 3, low QC: nominal 4 ng/mL baicalin, 20 ursodeoxycholic acid, 2 chenodeoxycholic acid and chlorogenic acid
[7] = n = 3, middle QC: nominal 20 ng/mL baicalin, 100 ursodeoxycholic acid, 10 chenodeoxycholic acid and chlorogenic acid
[8] = both sexes, iv, single i.v. dose of TRQI 0.5 mL/kg
[9] = both sexes, single oral dose of TRQC 0.09 g/kg
[10] = both sexes, iv, TRQI 0.5 mL/kg once per day for 7 days
[11] = both sexes, po, TRQC 0.09 g/kg once per day for 7 days

O=C(O)[C@H]1O[C@@H](Oc2cc3oc(-c4ccccc4)cc(=O)c3c(O)c2O)[C@H](O)[C@@H](O)[C@@H]1O [Baicalin, baicalin]
Freeze-thaw stability (3 cycles) Mean ± S.D. concentration [1, 5]: 202.81 ± 10.87 ng/mL | Long-term stability (30 days at – 80 °C) Mean ± S.D. concentration [1, 5]: 175.01 ± 4.57 ng/mL | Short-term stability (6 h at room temperature) Mean ± S.D concentration [1, 5]: 182.83 ± 7.72 ng/mL | Freeze-thaw stability (3 cycles) Mean ± S.D. concentration [1, 6]: 3.97 ± 0.36 ng/mL | Long-term stability (30 days at – 80 °C) Mean ± S.D. concentration [1, 6]: 3.50 ± 0.07 ng/mL | Short-term stability (6 h at room temperature) Mean ± S.D concentration [1, 6]: 4.01 ± 0.31 ng/mL | Freeze-thaw stability (3 cycles) Mean ± S.D. concentration [1, 7]: 17.88 ± 0.92 ng/mL | Long-term stability (30 days at – 80 °C) Mean ± S.D. concentration [1, 7]: 17.47 ± 0.42 ng/mL | Short-term stability (6 h at room temperature) Mean ± S.D concentration [1, 7]: 18.43 ± 0.75 ng/mL | oral availability ([2]; TRQC in dogs): small | AUC(0-t) ([2]; both sexes, iv, 0.5 mL/kg, single TRQI 0.5 mL/kg, Mean): 44.4 ng·h/mL | Cmax [2, 8]: 1050 ng/mL | Tmax [2, 8]: 0.08 h | half-life [2, 8]: 405 min | AUC(0-t) ([2]; both sexes, po, 0.09 g/kg, single TRQCs 0.09 g/kg, Mean): 14.1 ng·h/mL | Cmax [2, 9]: 4.79 ng/mL | Tmax [2, 9]: 3.78 h | half-life [2, 9]: 298 min | AUC(0-t) ([2]; female, iv, 0.5 mL/kg, single TRQI 0.5 mL/kg, beagle No 4): 161 ng·h/mL | AUC(0-t) ([2]; female, iv, 0.5 mL/kg, single TRQI 0.5 mL/kg, beagle No 5): 1.98 ng·h/mL | AUC(0-t) ([2]; female, iv, 0.5 mL/kg, single TRQI 0.5 mL/kg, beagle No 6): 39.9 ng·h/mL | AUC(0-t) ([2]; female, po, 0.09 g/kg, single TRQCs 0.09 g/kg, beagle No 4): 15.6 ng·h/mL | AUC(0-t) ([2]; female, po, 0.09 g/kg, single TRQCs 0.09 g/kg, beagle No 5): 1.15 ng·h/mL | AUC(0-t) ([2]; female, po, 0.09 g/kg, single TRQCs 0.09 g/kg, beagle No 6): 3.38 ng·h/mL | AUC(0-t) ([2]; male, iv, 0.5 mL/kg, single TRQI 0.5 mL/kg, beagle No 1): 44.5 ng·h/mL | AUC(0-t) ([2]; male, iv, 0.5 mL/kg, single TRQI 0.5 mL/kg, beagle No 2): 18.7 ng·h/mL | AUC(0-t) ([2]; male, iv, 0.5 mL/kg, single TRQI 0.5 mL/kg, beagle No 3): 0.47 ng·h/mL | AUC(0-t) ([2]; male, po, 0.09 g/kg, single TRQCs 0.09 g/kg, beagle No 1): 16 ng·h/mL | AUC(0-t) ([2]; male, po, 0.09 g/kg, single TRQCs 0.09 g/kg, beagle No 2): 36.4 ng·h/mL | AUC(0-t) ([2]; male, po, 0.09 g/kg, single TRQCs 0.09 g/kg, beagle No 3): 11.8 ng·h/mL | t1/2 ([3]; Hu's study): 48 min | t1/2 ([3]; another study): 216 min | clearance rate ([3]; rat, TRQI): 1.46 L/h/kg | volume of distribution ([3]; rat, TRQI): 1.07 L/kg | AUC(0-inf) ([4]; both sexes, iv, 0.5 mL/kg, TRQI 0.5 mL/kg for 7 days, Mean): 548 ng·h/mL | AUC(0-t) ([4]; both sexes, iv, 0.5 mL/kg, TRQI 0.5 mL/kg for 7 days, Mean, read-out: AUC0–24 h): 395 ng·h/mL | Cmax at 7 days [4, 10]: 1370 ng/mL | Tmax at 7 days [4, 10]: 0.11 h | half-life at 7 days [4, 10]: 332 min | AUC(0-inf) ([4]; both sexes, po, 0.09 g/kg, TRQC 0.09 g/kg for 7 days, Mean): 142 ng·h/mL | AUC(0-t) ([4]; both sexes, po, 0.09 g/kg, TRQC 0.09 g/kg for 7 days, Mean, read-out: AUC0–24 h): 107 ng·h/mL | Cmax at 7 days [4, 11]: 12.2 ng/mL | Tmax at 7 days [4, 11]: 7.25 h | half-life at 7 days [4, 11]: 728 min | AUC(0-inf) ([4]; female, iv, 0.5 mL/kg, TRQI 0.5 mL/kg for 7 days, beagle No. 4): 670 ng·h/mL | AUC(0-t) ([4]; female, iv, 0.5 mL/kg, TRQI 0.5 mL/kg for 7 days, beagle No. 4, read-out: AUC0–24 h): 527 ng·h/mL | AUC(0-inf) ([4]; female, iv, 0.5 mL/kg, TRQI 0.5 mL/kg for 7 days, beagle No. 5): 711 ng·h/mL | AUC(0-t) ([4]; female, iv, 0.5 mL/kg, TRQI 0.5 mL/kg for 7 days, beagle No. 5, read-out: AUC0–24 h): 526 ng·h/mL | AUC(0-inf) ([4]; female, iv, 0.5 mL/kg, TRQI 0.5 mL/kg for 7 days, beagle No. 6): 1290 ng·h/mL | AUC(0-t) ([4]; female, iv, 0.5 mL/kg, TRQI 0.5 mL/kg for 7 days, beagle No. 6, read-out: AUC0–24 h): 865 ng·h/mL | AUC(0-inf) ([4]; female, po, 0.09 g/kg, TRQC 0.09 g/kg for 7 days, beagle No. 4): 88.3 ng·h/mL | AUC(0-t) ([4]; female, po, 0.09 g/kg, TRQC 0.09 g/kg for 7 days, beagle No. 4, read-out: AUC0–24 h): 68 ng·h/mL | AUC(0-inf) ([4]; female, po, 0.09 g/kg, TRQC 0.09 g/kg for 7 days, beagle No. 5): 398 ng·h/mL | AUC(0-t) ([4]; female, po, 0.09 g/kg, TRQC 0.09 g/kg for 7 days, beagle No. 5, read-out: AUC0–24 h): 245 ng·h/mL | AUC(0-inf) ([4]; female, po, 0.09 g/kg, TRQC 0.09 g/kg for 7 days, beagle No. 6): 44.3 ng·h/mL | AUC(0-t) ([4]; female, po, 0.09 g/kg, TRQC 0.09 g/kg for 7 days, beagle No. 6, read-out: AUC0–24 h): 32.5 ng·h/mL | AUC(0-inf) ([4]; male, iv, 0.5 mL/kg, TRQI 0.5 mL/kg for 7 days, beagle No. 1): 45.8 ng·h/mL | AUC(0-t) ([4]; male, iv, 0.5 mL/kg, TRQI 0.5 mL/kg for 7 days, beagle No. 1, read-out: AUC0–24 h): 42.6 ng·h/mL | AUC(0-inf) ([4]; male, iv, 0.5 mL/kg, TRQI 0.5 mL/kg for 7 days, beagle No. 2): 534 ng·h/mL | AUC(0-t) ([4]; male, iv, 0.5 mL/kg, TRQI 0.5 mL/kg for 7 days, beagle No. 2, read-out: AUC0–24 h): 370 ng·h/mL | AUC(0-inf) ([4]; male, iv, 0.5 mL/kg, TRQI 0.5 mL/kg for 7 days, beagle No. 3): 37.6 ng·h/mL | AUC(0-t) ([4]; male, iv, 0.5 mL/kg, TRQI 0.5 mL/kg for 7 days, beagle No. 3, read-out: AUC0–24 h): 36.8 ng·h/mL | AUC(0-inf) ([4]; male, po, 0.09 g/kg, TRQC 0.09 g/kg for 7 days, beagle No. 1): 80.5 ng·h/mL | AUC(0-t) ([4]; male, po, 0.09 g/kg, TRQC 0.09 g/kg for 7 days, beagle No. 1, read-out: AUC0–24 h): 79.6 ng·h/mL | AUC(0-inf) ([4]; male, po, 0.09 g/kg, TRQC 0.09 g/kg for 7 days, beagle No. 2): 164 ng·h/mL | AUC(0-t) ([4]; male, po, 0.09 g/kg, TRQC 0.09 g/kg for 7 days, beagle No. 2, read-out: AUC0–24 h): 149 ng·h/mL | AUC(0-inf) ([4]; male, po, 0.09 g/kg, TRQC 0.09 g/kg for 7 days, beagle No. 3): 74.3 ng·h/mL | AUC(0-t) ([4]; male, po, 0.09 g/kg, TRQC 0.09 g/kg for 7 days, beagle No. 3, read-out: AUC0–24 h): 69.7 ng·h/mL
